Results: PMC5822518 (Pharmacognosy Magazine, 2018)
“Also recorded” adds a separate entry of the source. Where two headings read alike, the source gives them in different places.

Legend:
CYP2D6 [1] = target: T1, CYP2D6 (Homo sapiens, UniProt P10635); experiment: CYP2D6 fluorescence-based high throughput inhibition assay; type: in vitro ADME; settings: graded by inhibition evaluation standards
CYP2C19 [2] = target: T2, CYP2C19 (Homo sapiens, UniProt P33261); experiment: CYP2C19 fluorescence-based high throughput inhibition assay; type: in vitro ADME; settings: graded by inhibition evaluation standards
T2 sequence (P33261 whole entry): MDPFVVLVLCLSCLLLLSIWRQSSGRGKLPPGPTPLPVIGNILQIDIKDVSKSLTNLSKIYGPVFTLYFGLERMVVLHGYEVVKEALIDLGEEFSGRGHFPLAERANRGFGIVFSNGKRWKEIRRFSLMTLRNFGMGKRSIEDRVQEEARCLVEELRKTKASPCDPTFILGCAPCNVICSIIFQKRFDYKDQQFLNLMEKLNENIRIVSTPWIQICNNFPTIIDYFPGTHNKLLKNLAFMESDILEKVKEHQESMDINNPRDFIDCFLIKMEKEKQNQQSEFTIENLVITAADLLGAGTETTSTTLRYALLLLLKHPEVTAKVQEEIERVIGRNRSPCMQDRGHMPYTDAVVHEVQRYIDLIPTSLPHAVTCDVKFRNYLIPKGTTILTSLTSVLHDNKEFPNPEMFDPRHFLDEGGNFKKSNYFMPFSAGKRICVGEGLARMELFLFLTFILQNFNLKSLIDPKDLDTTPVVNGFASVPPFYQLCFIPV

CYP3A2 = settings: diabetic rats, single dose TQ; cited from earlier work
[3] = cited from earlier work
CYP3A4 = CYP3A4 (Homo sapiens, UniProt P08684); experiment: CYP3A4 fluorescence-based high throughput inhibition assay; type: in vitro ADME; settings: graded by inhibition evaluation standards
Sequence of CYP3A4 (P08684 whole entry): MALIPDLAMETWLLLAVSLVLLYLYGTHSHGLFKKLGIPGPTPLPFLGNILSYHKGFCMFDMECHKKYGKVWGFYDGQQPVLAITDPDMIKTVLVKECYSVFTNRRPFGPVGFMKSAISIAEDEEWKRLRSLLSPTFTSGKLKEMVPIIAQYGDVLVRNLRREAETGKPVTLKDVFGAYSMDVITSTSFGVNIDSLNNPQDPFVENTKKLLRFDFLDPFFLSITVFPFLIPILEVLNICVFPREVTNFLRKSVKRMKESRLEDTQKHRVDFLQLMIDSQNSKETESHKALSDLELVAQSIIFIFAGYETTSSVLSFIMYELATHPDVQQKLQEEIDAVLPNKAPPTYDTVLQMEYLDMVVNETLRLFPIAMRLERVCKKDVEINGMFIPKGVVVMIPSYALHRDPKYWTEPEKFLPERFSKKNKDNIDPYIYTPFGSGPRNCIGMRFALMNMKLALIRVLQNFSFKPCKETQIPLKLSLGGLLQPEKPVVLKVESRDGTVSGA

CYP2E1 = CYP2E1 (Homo sapiens, UniProt P05181); experiment: CYP2E1 inhibition, HPLC-UV assay of 6-hydroxychlorzoxazone formation; type: in vitro ADME; settings: graded by inhibition evaluation standards
Sequence of CYP2E1 (P05181 whole entry): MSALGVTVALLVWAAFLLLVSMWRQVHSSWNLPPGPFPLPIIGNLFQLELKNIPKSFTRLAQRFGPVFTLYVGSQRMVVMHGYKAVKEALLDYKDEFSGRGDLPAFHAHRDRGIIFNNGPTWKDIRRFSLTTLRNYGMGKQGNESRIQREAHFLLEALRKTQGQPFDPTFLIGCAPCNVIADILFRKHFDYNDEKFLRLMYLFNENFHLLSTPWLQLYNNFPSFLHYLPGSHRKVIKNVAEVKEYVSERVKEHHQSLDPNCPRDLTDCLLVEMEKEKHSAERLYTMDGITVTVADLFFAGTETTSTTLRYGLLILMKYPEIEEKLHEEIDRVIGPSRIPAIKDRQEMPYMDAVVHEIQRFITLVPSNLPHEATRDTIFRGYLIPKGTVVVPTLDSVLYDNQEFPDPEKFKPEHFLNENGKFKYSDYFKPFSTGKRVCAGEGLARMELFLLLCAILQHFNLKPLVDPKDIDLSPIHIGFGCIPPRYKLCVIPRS

CYP1A2 = target: T3, CYP1A2 (Homo sapiens, UniProt P05177); experiment: CYP1A2 fluorescence-based high throughput inhibition assay; type: in vitro ADME; settings: graded by inhibition evaluation standards
T3 sequence (P05177 1-516): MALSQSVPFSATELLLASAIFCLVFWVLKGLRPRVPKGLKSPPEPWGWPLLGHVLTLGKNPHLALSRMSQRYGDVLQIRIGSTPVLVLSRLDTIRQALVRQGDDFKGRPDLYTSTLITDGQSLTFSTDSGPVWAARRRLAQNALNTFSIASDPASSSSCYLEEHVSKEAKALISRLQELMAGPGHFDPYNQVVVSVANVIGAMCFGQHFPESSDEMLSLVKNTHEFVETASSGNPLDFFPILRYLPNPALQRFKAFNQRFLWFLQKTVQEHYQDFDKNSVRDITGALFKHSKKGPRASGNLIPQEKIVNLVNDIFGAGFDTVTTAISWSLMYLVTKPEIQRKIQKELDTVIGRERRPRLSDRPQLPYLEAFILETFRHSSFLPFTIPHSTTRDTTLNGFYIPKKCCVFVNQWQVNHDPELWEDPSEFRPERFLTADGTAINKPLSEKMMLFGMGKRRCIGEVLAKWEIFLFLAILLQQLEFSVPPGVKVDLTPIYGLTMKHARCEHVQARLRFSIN

CYP2C19 [4] = target: T2, CYP2C19; settings: HLMs; cited from earlier work
rheumatoid arthritis = settings: 500 mg daily for 8 weeks, 50 women with rheumatoid arthritis; cited from earlier work
CYP2D6 [5] = target: T1, CYP2D6; settings: HLMs; cited from earlier work

T1 sequence (P10635 whole entry): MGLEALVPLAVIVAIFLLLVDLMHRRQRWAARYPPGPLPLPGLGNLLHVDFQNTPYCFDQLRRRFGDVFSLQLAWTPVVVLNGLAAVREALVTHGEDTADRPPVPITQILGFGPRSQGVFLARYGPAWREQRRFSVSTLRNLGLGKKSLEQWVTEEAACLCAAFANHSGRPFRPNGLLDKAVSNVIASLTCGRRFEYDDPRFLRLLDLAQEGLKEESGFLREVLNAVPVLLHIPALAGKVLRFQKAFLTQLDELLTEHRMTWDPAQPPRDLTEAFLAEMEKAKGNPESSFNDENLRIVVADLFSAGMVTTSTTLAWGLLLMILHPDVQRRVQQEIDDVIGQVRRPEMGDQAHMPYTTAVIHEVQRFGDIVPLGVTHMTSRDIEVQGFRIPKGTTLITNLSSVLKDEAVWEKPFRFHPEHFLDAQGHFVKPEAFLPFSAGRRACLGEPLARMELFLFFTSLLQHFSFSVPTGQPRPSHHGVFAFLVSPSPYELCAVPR

Row | inhibitory effect on CYP2D6 activity (in words) (CYP2D6 [1]) | inhibitory effect on CYP3A4 activity (in words) (CYP3A4) | SMILES | inhibitory effect on CYP2C19 activity (in words) (CYP2C19 [2]) | hepatic protein expressions of CYP3A2 enzymes (CYP3A2) | increase in t½ of glibenclamide ([3]; chronic administration of TQ) [%] | increase in AUC of glibenclamide ([3]; diabetic rats, single dose TQ) [%] | increase in t½ of glibenclamide ([3]; diabetic rats, single dose TQ) [%] | inhibitory effect on CYP2E1 activity (in words) (CYP2E1) | inhibitory effect on CYP1A2 activity (in words) (CYP1A2) | inhibition of CYP2C19 (in words) (CYP2C19 [4]) | clinical symptoms, disease activity, hs-TNF-α and erythrocyte sedimentation rate (rheumatoid arthritis) | inhibition of CYP2D6 (in words) (CYP2D6 [5])
1 | no inhibitory effect | moderate to strong inhibitory effect | CC1=CC(=O)C(C(C)C)=CC1=O [TQ, Thymoquinone] | moderate inhibitory effect | marked decrease | 92 | 32.0 | 17.4 | neither QR nor TQ has any significant inhibitory effect | neither QR nor TQ has any significant inhibitory effect | – | – | –
2 | strong inhibitory effect | moderate to strong inhibitory effect | O=c1c(O)c(-c2ccc(O)c(O)c2)oc2cc(O)cc(O)c12 [QR, Quercetin] | moderate inhibitory effect; also recorded: moderate inhibitors | – | – | – | – | neither QR nor TQ has any significant inhibitory effect | neither QR nor TQ has any significant inhibitory effect | potent competitive inhibitor | significant improvements | moderate competitive inhibitor
